# Test results taken from patent US20220080026A1, “FORMULATIONS” (Sublimity Therapeutics Limited, priority 2013, published 2022).
# Counter-ions that a name gives are not always drawn.
# Details: heated at 60-70° C.
compound,measurement,value
NNc1nncc2ccccc12 [Hydralazine HCl],solubility in the aqueous phase of the formulation,fully soluble
